# Experimental data published in PubChem BioAssay AID248 (DTP/NCI, 2004).
# Inconclusive results and toxic doses are left out.
# Tested on: L1210 leukemia ip in BDF1 mice, survival T/C
# Assay: NCI In Vivo Anticancer Drug Screen. Data for tumor model L1210 Leukemia (intraperitoneal) in B6D2F1 (BDF1) mice
# Conditions: endpoint: mean survival time, higher = longer survival
# Method in brief: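 Mice bearing the transplanted tumor received compound or vehicle. Survival of the treated group was divided by that of the vehicle-treated control group to give the ratio.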
# [1] = dose: 100.0 mg/kg/injection, schedule: Q04DX003 (ip), vehicle: Klucel (hydroxypropylcellulose) (HPC)
# [2] = dose: 200.0 mg/kg/injection, schedule: Q04DX003 (ip), vehicle: Klucel (hydroxypropylcellulose) (HPC)
# [3] = dose: 400.0 mg/kg/injection, schedule: Q04DX003 (ip), vehicle: Klucel (hydroxypropylcellulose) (HPC)
# [4] = dose: 75.0 mg/kg/injection, schedule: Q01DX001 (ip), vehicle: other
# [5] = dose: 150.0 mg/kg/injection, schedule: Q01DX001 (ip), vehicle: other
# [6] = dose: 100.0 mg/kg/injection, schedule: Q01DX009 (ip), vehicle: Klucel (hydroxypropylcellulose) (HPC)
# [7] = dose: 200.0 mg/kg/injection, schedule: Q01DX009 (ip), vehicle: Klucel (hydroxypropylcellulose) (HPC)
# [8] = dose: 400.0 mg/kg/injection, schedule: Q01DX009 (ip), vehicle: Klucel (hydroxypropylcellulose) (HPC)
# [9] = dose: 100.0 mg/kg/injection, schedule: Q01DX001 (ip), vehicle: saline
# [10] = dose: 200.0 mg/kg/injection, schedule: Q01DX001 (ip), vehicle: saline
# [11] = dose: 400.0 mg/kg/injection, schedule: Q01DX001 (ip), vehicle: saline
# [12] = dose: 100.0 mg/kg/injection, schedule: Q04DX003 (ip), vehicle: saline
# [13] = dose: 200.0 mg/kg/injection, schedule: Q04DX003 (ip), vehicle: saline
# [14] = dose: 50.0 mg/kg/injection, schedule: Q01DX001 (ip), vehicle: saline
# [15] = dose: 400.0 mg/kg/injection, schedule: Q04DX003 (ip), vehicle: saline
smiles,measurement,setting,value
CC(=O)N=c1ccc(C)cn1O,T/C,"dose: 75.0 mg/kg/injection, schedule: Q01DX009 (ip), vehicle: Klucel (hydroxypropylcellulose) (HPC)",91 % of control
same,T/C,[1],104 % of control
same,T/C,"dose: 150.0 mg/kg/injection, schedule: Q01DX009 (ip), vehicle: Klucel (hydroxypropylcellulose) (HPC)",102 % of control
same,T/C,[2],100 % of control
same,T/C,"dose: 300.0 mg/kg/injection, schedule: Q01DX009 (ip), vehicle: Klucel (hydroxypropylcellulose) (HPC)",96 % of control
same,T/C,[3],102 % of control
CCCCCCCC(=O)[O][Hg][c]1ccccc1,T/C,"dose: 9.38 mg/kg/injection, schedule: Q01DX001 (ip), vehicle: saline",98 % of control
same,T/C,"dose: 18.75 mg/kg/injection, schedule: Q01DX001 (ip), vehicle: saline",88 % of control
same,T/C,"dose: 37.5 mg/kg/injection, schedule: Q01DX001 (ip), vehicle: saline",102 % of control
N=C(N)c1nn(C2OC(CO)C(O)C2O)c2ncnc(N)c12 (stereo unspecified),T/C,"dose: 3.12 mg/kg/injection, schedule: Q01DX009 (ip), vehicle: Klucel (hydroxypropylcellulose) (HPC)",102 % of control
same,T/C,"dose: 6.25 mg/kg/injection, schedule: Q01DX009 (ip), vehicle: Klucel (hydroxypropylcellulose) (HPC)",124 % of control
same,T/C,"dose: 9.0 mg/kg/injection, schedule: Q01DX005 (ip), vehicle: saline",159 % of control
same,T/C,"dose: 12.5 mg/kg/injection, schedule: Q01DX009 (ip), vehicle: Klucel (hydroxypropylcellulose) (HPC)",115 % of control
same,T/C,"dose: 15.0 mg/kg/injection, schedule: Q01DX005 (ip), vehicle: saline",185 % of control
same,T/C,"dose: 25.0 mg/kg/injection, schedule: Q01DX005 (ip), vehicle: saline",201 % of control
same,T/C,"dose: 42.0 mg/kg/injection, schedule: Q01DX005 (ip), vehicle: saline",204 % of control
CC1=C(C)CC2(C)N(C)CC2(C)C1 (stereo unspecified),T/C,"dose: 37.0 mg/kg/injection, schedule: Q04DX003 (ip), vehicle: other",104 % of control
same,T/C,"dose: 37.5 mg/kg/injection, schedule: Q01DX009 (ip), vehicle: other",110 % of control
same,T/C,[4],107 % of control
same,T/C,"dose: 75.0 mg/kg/injection, schedule: Q01DX009 (ip), vehicle: other",100 % of control
same,T/C,"dose: 75.0 mg/kg/injection, schedule: Q04DX003 (ip), vehicle: other",101 % of control
same,T/C,[5],115 % of control
same,T/C,"dose: 150.0 mg/kg/injection, schedule: Q01DX009 (ip), vehicle: other",93 % of control
same,T/C,"dose: 150.0 mg/kg/injection, schedule: Q04DX003 (ip), vehicle: other",106 % of control
O=[N+]([O-])c1cc([N+](=O)[O-])c(NN(c2ccc(Cl)cc2)c2ccc(Cl)cc2)c([N+](=O)[O-])c1,T/C,"dose: 25.0 mg/kg/injection, schedule: Q01DX009 (ip), vehicle: Klucel (hydroxypropylcellulose) (HPC)",96 % of control
same,T/C,"dose: 50.0 mg/kg/injection, schedule: Q01DX009 (ip), vehicle: Klucel (hydroxypropylcellulose) (HPC)",105 % of control
same,T/C,[6],98 % of control
same,T/C,[1],98 % of control
same,T/C,[2],96 % of control
same,T/C,[3],96 % of control
CC(=O)Nc1cc([N+](=O)[O-])ccc1CC(O)c1ccccc1 (stereo unspecified),T/C,[6],109 % of control
same,T/C,[1],97 % of control
same,T/C,[7],111 % of control
same,T/C,[2],97 % of control
same,T/C,[8],94 % of control
same,T/C,[3],100 % of control
Nn1c(-c2ccccc2)c[n+]2ccccc12,T/C,[4],101 % of control
same,T/C,[5],97 % of control
same,T/C,"dose: 300.0 mg/kg/injection, schedule: Q01DX001 (ip), vehicle: other",92 % of control
c1cc2cnc3cccc4cnc(c1)c2c43,T/C,"dose: 100.0 mg/kg/injection, schedule: Q04DX003 (ip), vehicle: saline sonified",105 % of control
same,T/C,"dose: 200.0 mg/kg/injection, schedule: Q04DX003 (ip), vehicle: saline sonified",95 % of control
same,T/C,"dose: 400.0 mg/kg/injection, schedule: Q04DX003 (ip), vehicle: saline sonified",97 % of control
O=C(O)C1OC(n2cc(I)c(=O)[nH]c2=O)CC1O (stereo unspecified),T/C,[9],107 % of control
same,T/C,[10],103 % of control
same,T/C,[11],100 % of control
Nc1cccc(COc2ccccc2)c1,T/C,[12],90 % of control
same,T/C,[13],92 % of control
COc1ccc([N+](=O)[O-])cc1N,T/C,[1],101 % of control
same,T/C,[2],104 % of control
same,T/C,[3],90 % of control
Cn1ncc(C#N)c1N,T/C,[14],98 % of control
same,T/C,[9],110 % of control
same,T/C,"dose: 100.0 mg/kg/injection, schedule: Q04DX002 (ip), vehicle: Klucel (hydroxypropylcellulose) (HPC)",98 % of control
same,T/C,[10],95 % of control
same,T/C,"dose: 200.0 mg/kg/injection, schedule: Q04DX002 (ip), vehicle: Klucel (hydroxypropylcellulose) (HPC)",91 % of control
same,T/C,[11],95 % of control
same,T/C,"dose: 400.0 mg/kg/injection, schedule: Q04DX002 (ip), vehicle: Klucel (hydroxypropylcellulose) (HPC)",100 % of control
Cc1ccc(NC(=O)Nc2c(C)n(C)n(-c3ccccc3)c2=O)c([N+](=O)[O-])c1,T/C,[1],94 % of control
same,T/C,[2],91 % of control
same,T/C,[3],91 % of control
CC(=O)OCC(CO)(CO)CO,T/C,"dose: 100.0 mg/kg/injection, schedule: Q01DX009 (ip), vehicle: saline",98 % of control
same,T/C,[12],97 % of control
same,T/C,"dose: 200.0 mg/kg/injection, schedule: Q01DX009 (ip), vehicle: saline",106 % of control
same,T/C,[13],105 % of control
same,T/C,"dose: 400.0 mg/kg/injection, schedule: Q01DX009 (ip), vehicle: saline",101 % of control
same,T/C,[15],92 % of control
CC1CC=C(N2CCOCC2)CC1 (stereo unspecified),T/C,[6],98 % of control
same,T/C,[7],97 % of control
same,T/C,[8],103 % of control
CCOC(=O)CC(O)(COC)c1ccccc1 (stereo unspecified),T/C,[14],114 % of control
same,T/C,[9],100 % of control
same,T/C,[10],109 % of control
same,T/C,[11],97 % of control
CC(C)(NC(=O)C(F)(F)F)C(=O)O,T/C,[12],100 % of control
same,T/C,[13],87 % of control
same,T/C,[15],95 % of control
